Calls of active or inactive are those of the source. The rule behind the calls is not given here.
Experiments:
[1] = molecular target: T1, Lysine-specific demethylase 4E (Homo sapiens, UniProt B2RXH2); experiment: Inhibition of N-terminal His6-tagged KDM4E (1 to 337 residues) (unknown origin) expressed in Escherichia coli BL21 (DE3)-R3 preincubated for 10 mins followed by substrate addition by fluorescence based FDH-coupled assay
T1 sequence (B2RXH2 whole entry): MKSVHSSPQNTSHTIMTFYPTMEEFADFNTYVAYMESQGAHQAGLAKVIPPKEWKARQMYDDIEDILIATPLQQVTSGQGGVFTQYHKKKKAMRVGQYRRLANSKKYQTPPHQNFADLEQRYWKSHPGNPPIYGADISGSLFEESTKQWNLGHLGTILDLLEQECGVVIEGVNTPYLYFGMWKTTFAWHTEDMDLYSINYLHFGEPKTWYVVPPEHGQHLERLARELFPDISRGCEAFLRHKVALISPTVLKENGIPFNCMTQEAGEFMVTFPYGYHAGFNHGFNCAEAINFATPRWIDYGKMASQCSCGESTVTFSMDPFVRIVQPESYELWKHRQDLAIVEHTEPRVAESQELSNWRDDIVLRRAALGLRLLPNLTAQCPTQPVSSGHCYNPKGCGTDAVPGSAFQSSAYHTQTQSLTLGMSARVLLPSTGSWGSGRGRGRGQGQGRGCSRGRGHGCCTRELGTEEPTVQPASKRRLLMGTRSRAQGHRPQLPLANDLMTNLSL

LNCaP [2] = experiment: Cytotoxicity against human LnCaP cells assessed as growth inhibition after 48 hrs by alamar blue assay; type: functional
LNCaP [3] = experiment: Inhibition of KDM4 in human LNCaP cells assessed as increase in H3K9me3 abundance at 25 uM incubated for 48 hrs by Western blot analysis; type: cell-based
[4] = Cytotoxicity against human prostate epithelial cells assessed as remaining cell viability after 48 hrs by alamar blue assay; type: functional
DU-145 [5] = experiment: Inhibition of KDM4 in human DU-145 cells assessed as increase in H3K9me3 level at 25 uM incubated for 48 hrs by Nu-ELISA; type: cell-based
LNCaP [6] = experiment: Inhibition of KDM4 in human LNCaP cells assessed as increase in H3K9me3 level at 25 uM incubated for 48 hrs by Nu-ELISA; type: cell-based
DU-145 [7] = experiment: Cytotoxicity against human DU-145 cells assessed as remaining cell viability after 48 hrs by alamar blue assay; type: functional
LNCaP [8] = experiment: Inhibition of KDM4 in human LNCaP cells assessed as decrease in PSA gene expression at 25 uM incubated for 48 hrs by qPCR analysis; type: cell-based
[9] = Cytotoxicity against human LnCaP cells assessed as remaining cell viability after 48 hrs by alamar blue assay; type: functional, Prostate cell
DU-145 [10] = experiment: Cytotoxicity against human DU-145 cells assessed as growth inhibition after 48 hrs by alamar blue assay; type: functional
LNCaP [11] = experiment: Inhibition of KDM4 in human LNCaP cells assessed as decrease in luciferase activity at 25 uM incubated for 48 hrs by luciferase based reporter gene assay; type: cell-based
PC-3 [12] = experiment: Cytotoxicity against human PC-3 cells assessed as remaining cell viability after 48 hrs by alamar blue assay; type: functional
LNCaP [13] = experiment: Inhibition of KDM4 in human LNCaP cells assessed as decrease in PSA gene expression at 25 uM incubated for 48 hrs in presence of DHT by qPCR analysis; type: cell-based
PC-3 [14] = experiment: Cytotoxicity against human PC-3 cells assessed as growth inhibition after 48 hrs by alamar blue assay; type: functional
[15] = molecular target: T2, Lysine-specific demethylase 4E (Homo sapiens) (UniProt B2RXH2); experiment: Inhibition of N-terminal His6-tagged KDM4E (1 to 337 residues) (unknown origin) expressed in Escherichia coli BL21 (DE3)-R3 at highest concentration preincubated for 10 mins followed by substrate addition by fluorescence based FDH-coupled assay
T2 sequence (whole entry): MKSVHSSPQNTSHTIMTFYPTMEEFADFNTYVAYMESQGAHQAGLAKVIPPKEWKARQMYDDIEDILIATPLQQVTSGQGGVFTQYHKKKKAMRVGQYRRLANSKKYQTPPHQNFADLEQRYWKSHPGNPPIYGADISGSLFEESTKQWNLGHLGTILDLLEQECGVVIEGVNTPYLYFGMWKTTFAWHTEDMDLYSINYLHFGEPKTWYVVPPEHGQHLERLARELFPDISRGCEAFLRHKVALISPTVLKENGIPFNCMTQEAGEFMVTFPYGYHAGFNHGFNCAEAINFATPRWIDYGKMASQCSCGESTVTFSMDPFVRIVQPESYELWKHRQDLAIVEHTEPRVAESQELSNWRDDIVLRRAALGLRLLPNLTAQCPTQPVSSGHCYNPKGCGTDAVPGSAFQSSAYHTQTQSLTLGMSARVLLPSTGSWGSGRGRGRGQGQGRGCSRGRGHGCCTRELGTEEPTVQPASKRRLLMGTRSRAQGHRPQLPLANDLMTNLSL

LNCaP [16] = experiment: Inhibition of KDM4 in human LNCaP cells assessed as decrease in luciferase activity at 50 uM incubated for 48 hrs by luciferase based reporter gene assay; type: cell-based
LNCaP [17] = experiment: Inhibition of KDM4 in human LNCaP cells assessed as decrease in PSA gene expression at 100 uM incubated for 48 hrs by qPCR analysis; type: cell-based
[18] = compound: Cc1nn(-c2nc3ccccc3[nH]2)c(O)c1-c1ccccc1; experiment: Inhibition of N-terminal His6-tagged KDM4E (1 to 337 residues) (unknown origin) expressed in Escherichia coli BL21 (DE3)-R3 assessed as Km at 10 uM in presence of H3K9me3 by Michaelis-Menten analysis (reference value: 11 uM); conditions: Homo sapiens
[19] = compound: Cc1nn(-c2nc3ccccc3[nH]2)c(O)c1-c1ccccc1; experiment: Inhibition of N-terminal His6-tagged KDM4E (1 to 337 residues) (unknown origin) expressed in Escherichia coli BL21 (DE3)-R3 assessed as Vmax at 5 uM in presence of H3K9me3 by Michaelis-Menten analysis (reference value: 21 /s); conditions: Homo sapiens
[20] = compound: O=C(O)c1ccnc(C(=O)O)c1; experiment: Inhibition of N-terminal His6-tagged KDM4E (1 to 337 residues) (unknown origin) expressed in Escherichia coli BL21 (DE3)-R3 assessed as Km at 1 uM in presence of alpha-KG by Michaelis-Menten analysis (reference value: 22 uM); conditions: Homo sapiens
[21] = compound: Cc1nn(-c2nc3ccccc3[nH]2)c(O)c1-c1ccccc1; experiment: Inhibition of N-terminal His6-tagged KDM4E (1 to 337 residues) (unknown origin) expressed in Escherichia coli BL21 (DE3)-R3 assessed as Km at 10 uM in presence of alpha-KG by Michaelis-Menten analysis (reference value: 12 uM); conditions: Homo sapiens
[22] = compound: O=C(O)c1ccnc(C(=O)O)c1; experiment: Inhibition of N-terminal His6-tagged KDM4E (1 to 337 residues) (unknown origin) expressed in Escherichia coli BL21 (DE3)-R3 assessed as Vmax at 1 uM in presence of alpha-KG by Michaelis-Menten analysis (reference value: 42 /s); conditions: Homo sapiens
[23] = compound: Cc1nn(-c2nc3ccccc3[nH]2)c(O)c1-c1ccccc1; experiment: Inhibition of N-terminal His6-tagged KDM4E (1 to 337 residues) (unknown origin) expressed in Escherichia coli BL21 (DE3)-R3 assessed as Vmax at 10 uM in presence of H3K9me3 by Michaelis-Menten analysis (reference value: 21 /s); conditions: Homo sapiens
[24] = compound: Cc1nn(-c2nc3ccccc3[nH]2)c(O)c1-c1ccccc1; experiment: Inhibition of N-terminal His6-tagged KDM4E (1 to 337 residues) (unknown origin) expressed in Escherichia coli BL21 (DE3)-R3 assessed as Km at 5 uM in presence of H3K9me3 by Michaelis-Menten analysis (reference value: 11 uM); conditions: Homo sapiens
[25] = compound: Cc1nn(-c2nc3ccccc3[nH]2)c(O)c1-c1ccccc1; experiment: Inhibition of N-terminal His6-tagged KDM4E (1 to 337 residues) (unknown origin) expressed in Escherichia coli BL21 (DE3)-R3 assessed as Km at 5 uM in presence of alpha-KG by Michaelis-Menten analysis (reference value: 12 uM); conditions: Homo sapiens
[26] = compound: Cc1nn(-c2nc3ccccc3[nH]2)c(O)c1-c1ccccc1; experiment: Inhibition of N-terminal His6-tagged KDM4E (1 to 337 residues) (unknown origin) expressed in Escherichia coli BL21 (DE3)-R3 assessed as Km at 1 uM in presence of H3K9me3 by Michaelis-Menten analysis (reference value: 11 uM); conditions: Homo sapiens
[27] = compound: Cc1nn(-c2nc3ccccc3[nH]2)c(O)c1-c1ccccc1; experiment: Inhibition of N-terminal His6-tagged KDM4E (1 to 337 residues) (unknown origin) expressed in Escherichia coli BL21 (DE3)-R3 assessed as Vmax at 1 uM in presence of H3K9me3 by Michaelis-Menten analysis (reference value: 21 /s); conditions: Homo sapiens
[28] = compound: Cc1nn(-c2nc3ccccc3[nH]2)c(O)c1-c1ccccc1; experiment: Inhibition of N-terminal His6-tagged KDM4E (1 to 337 residues) (unknown origin) expressed in Escherichia coli BL21 (DE3)-R3 assessed as Vmax at 1 uM in presence of alpha-KG by Michaelis-Menten analysis (reference value: 35 /s); conditions: Homo sapiens
[29] = compound: Cc1nn(-c2nc3ccccc3[nH]2)c(O)c1-c1ccccc1; experiment: Inhibition of N-terminal His6-tagged KDM4E (1 to 337 residues) (unknown origin) expressed in Escherichia coli BL21 (DE3)-R3 assessed as Km at 1 uM in presence of alpha-KG by Michaelis-Menten analysis (reference value: 12 uM); conditions: Homo sapiens
[30] = compound: Cc1nn(-c2nc3ccccc3[nH]2)c(O)c1-c1ccccc1; experiment: Inhibition of N-terminal His6-tagged KDM4E (1 to 337 residues) (unknown origin) expressed in Escherichia coli BL21 (DE3)-R3 assessed as Vmax at 10 uM in presence of alpha-KG by Michaelis-Menten analysis (reference value: 35 /s); conditions: Homo sapiens
[31] = compound: Cc1nn(-c2nc3ccccc3[nH]2)c(O)c1-c1ccccc1; experiment: Inhibition of N-terminal His6-tagged KDM4E (1 to 337 residues) (unknown origin) expressed in Escherichia coli BL21 (DE3)-R3 assessed as Vmax at 5 uM in presence of alpha-KG by Michaelis-Menten analysis (reference value: 35 /s); conditions: Homo sapiens

## Cc1cc(O)n(-c2nc3ccccc3[nH]2)n1
[1]
  IC50: 76 µM

## CCc1nn(-c2nc3ccccc3[nH]2)c(O)c1-c1ccccc1
[1]
  IC50: 5 µM

## O=C(O)Cc1cc(O)n(-c2nc3ccccc3[nH]2)n1
[1]
  IC50: 347 µM

## Cc1nn(-c2nc3ccccc3[nH]2)c(O)c1-c1ccccc1
LNCaP [2]
  GI50: 8 µM
LNCaP [3]
  inhibition: Active
[4]
  Activity: 2%
DU-145 [5]
  inhibition: Active
LNCaP [6]
  inhibition: Active
DU-145 [7]
  Activity: 0%
LNCaP [8]
  inhibition: Active
[9]
  Activity: 1%
DU-145 [10]
  GI50: 8 µM
LNCaP [11]
  inhibition: Active
PC-3 [12]
  Activity: 27%
LNCaP [13]
  inhibition: Active
PC-3 [14]
  GI50: > 50 µM

## Cc1cc(C)n(-c2nc3ccccc3[nH]2)n1
[15]
  inhibition: inactive

## Cc1nn(-c2nc3ccccc3[nH]2)c(O)c1CCC(=O)N(C)C
[1]
  IC50: 16 µM

## Cc1nn(-c2nc3ccccc3s2)c(O)c1-c1ccccc1
[1]
  IC50: 35 µM

## CCCCc1nn(-c2nc3ccccc3[nH]2)c(O)c1-c1ccccc1
[1]
  IC50: 6 µM

## Cc1nn(-c2nc3ccccc3[nH]2)c(N)c1-c1ccccc1
[1]
  IC50: 160 µM

## Cc1nn(-c2nc3ccccc3[nH]2)c(O)c1CCCN(C)C
[1]
  IC50: 70 µM

## CN(C)CCCNC(=O)c1ccc(-c2cc(O)c3ncccc3c2)cc1
LNCaP [2]
  GI50: 53 µM
DU-145 [5]
  inhibition: Active
LNCaP [6]
  inhibition: Active
[9]
  Activity: 1%
LNCaP [16]
  inhibition: Active
LNCaP [17]
  inhibition: inactive

## CNC(=O)CCc1c(C)nn(-c2nc3ccccc3[nH]2)c1O
[1]
  IC50: 41 µM

## Cc1cc(N)n(-c2nc3ccccc3[nH]2)n1
[1]
  IC50: 199 µM

## C=CCc1c(C)nn(-c2nc3ccccc3[nH]2)c1O
[1]
  IC50: 24 µM

## Cc1nn(-c2ccccn2)c(O)c1Cc1ccccc1
[1]
  IC50: 57 µM

B1: Lysine-specific demethylase 4E (Homo sapiens), B2RXH2 (protein)
chain: MKSVHSSPQNTSHTIMTFYPTMEEFADFNTYVAYMESQGAHQAGLAKVIPPKEWKARQMYDDIEDILIATPLQQVTSGQGGVFTQYHKKKKAMRVGQYRRLANSKKYQTPPHQNFADLEQRYWKSHPGNPPIYGADISGSLFEESTKQWNLGHLGTILDLLEQECGVVIEGVNTPYLYFGMWKTTFAWHTEDMDLYSINYLHFGEPKTWYVVPPEHGQHLERLARELFPDISRGCEAFLRHKVALISPTVLKENGIPFNCMTQEAGEFMVTFPYGYHAGFNHGFNCAEAINFATPRWIDYGKMASQCSCGESTVTFSMDPFVRIVQPESYELWKHRQDLAIVEHTEPRVAESQELSNWRDDIVLRRAALGLRLLPNLTAQCPTQPVSSGHCYNPKGCGTDAVPGSAFQSSAYHTQTQSLTLGMSARVLLPSTGSWGSGRGRGRGQGQGRGCSRGRGHGCCTRELGTEEPTVQPASKRRLLMGTRSRAQGHRPQLPLANDLMTNLSL
[18]
  Km: 19 µM
[19]
  Vmax: 14 s⁻¹
[20]
  Km: 69 µM
[21]
  Km: 2 µM
[22]
  Vmax: 37 s⁻¹
[23]
  Vmax: 5 s⁻¹
[24]
  Km: 14 µM
[25]
  Km: 8 µM
[26]
  Km: 14 µM
[27]
  Vmax: 21 s⁻¹
[28]
  Vmax: 31 s⁻¹
[29]
  Km: 13 µM
[30]
  Vmax: 12 s⁻¹
[31]
  Vmax: 24 s⁻¹
